# In PMC8043142 (Journal of medicinal chemistry, 2021):
# Legend:
# [1] = biological target: disulfide stabilized HIV-1NL4-3 CA hexamer (Human immunodeficiency virus type 1 group M subtype B, UniProt P12493, A146C/E177C/M317A/W316A); assay: SPR direct interaction analysis with immobilized CA hexamer; format: binding; conditions: for kd: SPR, 25 °C, 1:1 binding model
# [2] = Metabolic stability in human liver microsomes; conditions: half-life relative to S-PF-74
# [3] = enantiomerically pure compounds
Structure (SMILES),"binding to CA hexamer via SPR (in words) [1, 3]","kd [1, 3]",further results
"Cc1[nH]c2ccccc2c1CC(=O)NC(Cc1ccccc1)C(=O)N(C)c1ccc2[nH]ncc2c1 (centres unmarked) [CX16, N-(1H-indazol-5-yl)-N-methyl-2-(2-(2-methyl-1H-indol-3-yl)acetamido)-3-phenylpropanamide]",,,kd ([1]; racemic compounds): 1.21 ± 0.037 × 10^−2 s^−1
"CN(C(=O)C(Cc1ccccc1)NC(=O)Cc1n[nH]c2c(N)cccc12)c1ccc2[nH]ncc2c1 (centres unmarked) [CX17, 2-(2-(7-amino-1H-indazol-3-yl)acetamido)-N-(1H-indazol-5-yl)-N-methyl-3-phenylpropanamide]",,,"IC50 relative to predicted and experimentally determined affinity (HIV-1 pseudoviruses; racemic compound, IC50 higher than affinity): approximately 5 fold"
"Cc1[nH]c2ccccc2c1CC(=O)NC(Cc1ccccc1)C(=O)N(C)c1ccccc1 (centres unmarked) [PF-74, reference compound]",,,kd ([1]; racemic compounds): 2.93 ± 0.182 × 10^−2 s^−1
"CN(C(=O)[C@@H](Cc1ccccc1)NC(=O)Cc1c[nH]c2c(N)cccc12)c1ccccc1 [R-CX15, (R)-2-(2-(7-Amino-1H-indol-3-yl)acetamido)-N-methyl-N,3-diphenylpropanamide]",little to no binding interactions,,
"Cc1[nH]c2ccccc2c1CC(=O)N[C@H](Cc1ccccc1)C(=O)N(C)c1ccc2[nH]ncc2c1 [R-CX16, (R)-N-(1H-Indazol-5-yl)-N-methyl-2-(2-(2-methyl-1H-indol-3-yl)acetamido)-3-phenylpropanamide]",little to no binding interactions,,
"CN(C(=O)[C@@H](Cc1ccccc1)NC(=O)Cc1n[nH]c2c(N)cccc12)c1ccc2[nH]ncc2c1 [R-CX17, (R)-2-(2-(7-amino-1H-indazol-3-yl)acetamido)-N-(1H-indazol-5-yl)-N-methyl-3-phenylpropanamide]",little to no binding interactions,,
"Cc1[nH]c2ccccc2c1CC(=O)N[C@H](Cc1ccccc1)C(=O)N(C)c1ccccc1 [R-PF-74, (R)-N-methyl-2-(2-(2-methyl-1H-indol-3-yl)acetamido)-N,3-diphenylpropanamide, reference compound]",little to no binding interactions,,
"CN(C(=O)[C@H](Cc1ccccc1)NC(=O)Cc1c[nH]c2c(N)cccc12)c1ccccc1 [S-CX15, (S)-2-(2-(7-Amino-1H-indol-3-yl)acetamido)-N-methyl-N,3-diphenylpropanamide]",robust binding,6.60 ± 0.328 × 10^−2 s^−1,Fold Increase (over S-PF-74) [2]: 30.8 fold
"Cc1[nH]c2ccccc2c1CC(=O)N[C@@H](Cc1ccccc1)C(=O)N(C)c1ccc2[nH]ncc2c1 [S-CX16, (S)-N-(1H-Indazol-5-yl)-N-methyl-2-(2-(2-methyl-1H-indol-3-yl)acetamido)-3-phenylpropanamide]",robust binding,1.09 ± 0.043 × 10^−2 s^−1,"Fold Increase (over S-PF-74) [2]: 2.0 fold; improvement in affinity over S-PF-74 [1, 3]: > 2 fold"
"CN(C(=O)[C@H](Cc1ccccc1)NC(=O)Cc1n[nH]c2c(N)cccc12)c1ccc2[nH]ncc2c1 [S-CX17, (S)-2-(2-(7-amino-1H-indazol-3-yl)acetamido)-N-(1H-indazol-5-yl)-N-methyl-3-phenylpropanamide]",robust binding,9.66 ± 0.145 × 10^−2 s^−1,change of antiviral potency relative to parental compound (HIV-1 pseudoviruses; slightly diminished potency): ~3.5 fold; Fold Increase (over S-PF-74) [2]: 204 fold
"Cc1[nH]c2ccccc2c1CC(=O)N[C@@H](Cc1ccccc1)C(=O)N(C)c1ccccc1 [S-PF-74, (S)-N-methyl-2-(2-(2-methyl-1H-indol-3-yl)acetamido)-N,3-diphenylpropanamide, reference compound]",robust binding,2.92 ± 0.111 × 10^−2 s^−1,
